In patent US4020111A, “Propynyloxy alkyl arene insecticides” (priority 1975, dated 1977):

Experiments:
mice [1] = assay: synergism of acute toxicity of Dimetilan, GS 13005, Secobarbital and Methadone (intraperitoneal); type: in vivo, Swiss albino white male mice; conditions: for number of mice dead: 48 hours, of eight mice
In short: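 Male Swiss albino mice (5–6 weeks, 23–27 g), eight per dose; synergist in corn oil given i.p. 1 h before i.p. insecticide or drug (drugs in distilled water). Lethality recorded over at least 6 h; controls received corn oil plus agent alone.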

mice [2] = assay: extension of Noludar sleeping time by synergists; type: in vivo, Swiss albino white male mice; conditions: Noludar 110 mg/K, synergist 110 mg/K; for Relative Sleeping Time: treated/control
In short: (§1)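 Swiss albino male mice (~38 days, 25-30 g) given synergist at 74.0 or 110.0 mg/kg in corn oil 1 h before Secobarbital 37.0 mg/kg or Noludar 110.0 mg/kg in water. Sleeping time measured from drug dosing to righting-reflex recovery; relative sleeping time = treated ÷ drug-only control.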

mice [3] = assay: extension of Secobarbital sleeping time by synergists; type: in vivo, Swiss albino white male mice; conditions: Secobarbital 37 mg/K; for Relative Sleeping Time: treated/control
In short: as §1

[4] = tested on: IN/WHO strain house flies; assay: topical application test, percent kill after 24 hours, IN/WHO strain; type: in vivo, house fly (susceptible IN/WHO strain)
In short: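 Susceptible female IN/WHO house flies, 3–5 days old, CO2-anesthetized, received synergist plus insecticide in acetone (1.0 μL) on the thorax; doses in μg/fly. Flies held 10 per dish, 3–5 dishes/treatment, with skim milk; mortality (percent kill) read at 24 h.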

[5] = Dimetilan 8 mg/kg + synergist 80 mg/kg ip
[6] = Dimetilan 8 mg/kg + synergist 240 mg/kg ip
[7] = Mobam 0.10 + synergist 0.50 μg/fly
[8] = Diazinon 0.03 + synergist 0.15 μg/fly
[9] = Mobam 0.20 + synergist 1 μg/fly
[10] = Mobam 0.05 + synergist 0.25 μg/fly
[11] = GS 13005 71 mg/kg + synergist 213 mg/kg
[12] = Methadone 32 mg/kg + synergist 215 mg/kg
[13] = Secobarbital 90 mg/kg + synergist 215 mg/kg
[14] = Mobam 0.50 μg/fly, synergist/insecticide 5/1
[15] = Mobam 1.0 μg/fly, synergist/insecticide 1/1
[16] = Mobam 1.0 μg/fly, synergist/insecticide 2/1
[17] = Mobam 1.0 μg/fly, synergist/insecticide 5/1

C#CCON=C(C)c1ccc(Cl)cc1 [I-D]
number of mice dead (mice [1]; [5]): 1
number of mice dead (mice [1]; [6]): 6
Mean Sleeping Time (mice [2]): 58 min
Relative Sleeping Time (mice [2]): 1.5
Mean Sleeping Time (mice [3]; synergist 74 mg/K): 62 min
Relative Sleeping Time (mice [3]; synergist 74 mg/K): 1.9
Mean Sleeping Time (mice [3]; synergist 110 mg/K): 56 min
Relative Sleeping Time (mice [3]; synergist 110 mg/K): 1.7
percent kill after 24 hours [4, 7]: 20%

C#CCON=C(C)c1ccc2ccccc2c1 [I-F]
number of mice dead (mice [1]; [5]): 0
number of mice dead (mice [1]; [6]): 4
Mean Sleeping Time (mice [2]): 55 min
Relative Sleeping Time (mice [2]): 1.4
Mean Sleeping Time (mice [3]; synergist 74 mg/K): 32 min
Relative Sleeping Time (mice [3]; synergist 74 mg/K): 1.1
Mean Sleeping Time (mice [3]; synergist 110 mg/K): 70 min
Relative Sleeping Time (mice [3]; synergist 110 mg/K): 2.2
percent kill after 24 hours [4, 8]: 24%
percent kill after 24 hours ([4]; GS 13005 0.10 + synergist 0.50 μg/fly): 45%
percent kill after 24 hours [4, 9]: 47%

C#CCON=Cc1ccc(Cl)cc1Cl [I-G]
number of mice dead (mice [1]; [6]): 0
Mean Sleeping Time (mice [2]): 48 min
Relative Sleeping Time (mice [2]): 1.2
Mean Sleeping Time (mice [3]; synergist 74 mg/K): 27 min
Relative Sleeping Time (mice [3]; synergist 74 mg/K): 1.0
Mean Sleeping Time (mice [3]; synergist 110 mg/K): 55 min
Relative Sleeping Time (mice [3]; synergist 110 mg/K): 1.7
percent kill after 24 hours ([4]; Diazinon 0.02 + synergist 0.10 μg/fly): 40%

C#CCOCc1ccc(Cl)c(Cl)c1 [II-C]
number of mice dead (mice [1]; [6]): 0
Mean Sleeping Time (mice [2]): 50 min
Relative Sleeping Time (mice [2]): 1.3
Mean Sleeping Time (mice [3]; synergist 110 mg/K): 33 min
Relative Sleeping Time (mice [3]; synergist 110 mg/K): 1.0
percent kill after 24 hours [4, 8]: 25%
percent kill after 24 hours [4, 10]: 4%
percent kill after 24 hours [4, 7]: 27%

C#CCOCc1ccc(Cl)c(Cl)c1Cl [II-D]
number of mice dead (mice [1]; [6]): 0
mice lethality (number dead) (mice [1]; [11]): 3
mice lethality (number dead) (mice [1]; [12]): 2
mice lethality (number dead) (mice [1]; [13]): 1
Mean Sleeping Time (mice [2]): 46 min
Relative Sleeping Time (mice [2]): 1.0
Mean Sleeping Time (mice [3]; synergist 110 mg/K): 60 min
Relative Sleeping Time (mice [3]; synergist 110 mg/K): 1.2
percent kill after 24 hours [4, 8]: 40%
percent mortality 24 hours ([4]; Mobam 0.13 μg/fly, synergist/insecticide 1/1): 17%
percent mortality 24 hours ([4]; Mobam 0.25 μg/fly, synergist/insecticide 0.5/1): 30%
percent mortality 24 hours ([4]; Mobam 0.50 μg/fly, synergist/insecticide 1/1): 100%
percent mortality 24 hours [4, 14]: 100%
percent mortality 24 hours [4, 15]: 100%
percent mortality 24 hours [4, 16]: 100%
percent mortality 24 hours [4, 17]: 100%
percent kill after 24 hours [4, 10]: 10%
percent kill after 24 hours [4, 9]: 100%

C#CCOCc1c(Cl)ccc(Cl)c1Cl [II-E]
number of mice dead (mice [1]; [6]): 0
Mean Sleeping Time (mice [2]): 45 min
Relative Sleeping Time (mice [2]): 1.1
Mean Sleeping Time (mice [3]; synergist 110 mg/K): 44 min
Relative Sleeping Time (mice [3]; synergist 110 mg/K): 1.4
percent mortality 24 hours [4, 14]: 100%
percent mortality 24 hours ([4]; Mobam 1.0 μg/fly, synergist/insecticide 0.5/1): 100%
percent mortality 24 hours [4, 15]: 100%
percent mortality 24 hours [4, 16]: 100%
percent mortality 24 hours [4, 17]: 100%
percent kill after 24 hours [4, 7]: 33%
percent kill after 24 hours [4, 9]: 100%
percent kill after 24 hours ([4]; synergist alone 1 μg/fly): 0%

C#CCOCc1c(Cl)cccc1[N+](=O)[O-] [II-K]
number of mice dead (mice [1]; [5]): 0
number of mice dead (mice [1]; [6]): 6
mice lethality (number dead) (mice [1]; [11]): 3
mice lethality (number dead) (mice [1]; [12]): 2
mice lethality (number dead) (mice [1]; [13]): 1
Mean Sleeping Time (mice [2]): 75 min
Relative Sleeping Time (mice [2]): 2.4
Mean Sleeping Time (mice [3]; synergist 74 mg/K): 48 min
Relative Sleeping Time (mice [3]; synergist 74 mg/K): 1.5
Mean Sleeping Time (mice [3]; synergist 110 mg/K): 44 min
Relative Sleeping Time (mice [3]; synergist 110 mg/K): 2
24 hour percent mortality ([4]; Bidrin 0.063 μg/fly with five parts synergist): 0%
24 hour percent mortality ([4]; Pyrolan 0.13 μg/fly with five parts synergist): 40%
